These are literature values, as cited in patent US8318201B2, “Method of stabilizing diarylvinylene compound” (Kyowa Hakko Kirin Co., Ltd., priority 2003, dated 2012).

For this data set the following is noted: Bioorg. Med. Chem. Lett., vol. 7, p. 2349-2352 (1997); particularly unstable in a state of a solution.

In the case of `CCn1c(=O)c2c(nc(/C=C/c3ccc(OC)c(OC)c3)n2C)n(CC)c1=O` [Compound 1, (E)-8-(3,4-dimethoxystyryl)-1,3-diethyl-7-methyl-3,7-dihydro-1H-purine-2,6-dione], the “stability under irradiation of light (isomerization at the vinylene moiety)” value is recorded as “unstable particularly under irradiation of light”.
